Series [1] has as its system Staphylococcus 242 (Methicillin-resistant strain). In words: Protection ability against systemic infection. The note with it: iv, 168 h, ICR mice, intraperitoneal infection, compound intravenously 1 hour after infection, survival at 1 week. It counts as in vivo. On the procedure:
(§1) Protection ability against systemic infection was determined as follows. An aqueous suspension of test bacteria was intraperitoneally injected into groups of 10 four week old ICR mice. One hour after the infection, test compounds were intravenously administered. The number of surviving mice was counted 1 week after injection to determine the dose at which 50% of the test animals were alive (ED50 :mg/kg).
*Methicillin-resistant strain

Series [2] deals with Klebsiella pneumoniae IF03317. Nature of the series: Antibacterial activity in vitro, agar plate dilution method (MIC). It counts as cell-based. The note with it: 10^6 cells/ml, Mueller Hinton agar, 37° C., 20 hours. On the procedure:
(§2) Antibacterial activity in vitro was determined in accordance with the agar plate dilution method. A platinum loop each of test bacteria (10^6 cells/ml), cultured in Mueller Hinton broth, was inoculated on Mueller Hinton agar plates which contained test compounds at various concentrations. After cultivating at 37° C. for 20 hours, the minimum inhibitory concentration (MIC μg/ml) was determined.

Series [3] deals with Serratia marcescens IF03759. Described as above. It is filed as cell-based. Conditions: 10^6 cells/ml, Mueller Hinton agar, 37° C., 20 hours. As to the method:
as §2

Another series relates to Escherichia coli 67. The series is described as above. Conditions: 10^6 cells/ml, Mueller Hinton agar, 37° C., 20 hours. It is filed as cell-based. On the procedure: as §2
The next series has as its system Proteus morganii IF03848. The description is as above. It counts as cell-based. The note with it: Morganella morganii, 10^6 cells/ml, Mueller Hinton agar, 37° C., 20 hours. As to the method:
as §2

In series [4] the test system is Staphylococcus aureus Smith. Described as above. It is filed as cell-based. Conditions: 10^6 cells/ml, Mueller Hinton agar, 37° C., 20 hours. On the procedure: as §2
Series [5] concerns Pseudomonas aeruginosa IF03445. Described as above. It counts as cell-based. The note with it: 10^6 cells/ml, Mueller Hinton agar, 37° C., 20 hours. As to the method: as §2
Series [6] in a line: LD50 determined in accordance with the Probit method. Conditions: in vivo, iv. On the procedure: Next, LD50 of representative examples of the compounds of the present invention is shown in Table 3 wherein LD50 was determined in accordance with the Probit method.
The subject of series [7] is Klebsiella pneumoniae IF03317. In words: Protection ability against systemic infection. It is filed as in vivo. Conditions: IF03317, iv, 168 h, ICR mice, intraperitoneal infection, compound intravenously 1 hour after infection, survival at 1 week. On the procedure:
as §1

≈ marks a conversion by molar mass, not a printed value.

Turning to `Cc1nnc(SCC2=C(C(=O)O)N3C(=O)[C@@H](NC(=O)Cn4cnnn4)[C@H]3SC2)s1` [CEZ, reference compound], the 50% effect level in series [1] (ED50) was put at a dose of 74 mg/kg.
Turning to `Cc1cc(SCC2=C(C(=O)O)N3C(=O)[C@@H](NC(=O)/C(=N\O)c4csc(N)n4)[C@H]3SC2)n2nc(C(=O)O)nc2n1` [Compound 8, (6R,7R)-7-[2-(2-amino-4-thiazolyl)-2-(Z-hydroxyimino)acetamido]3-[(2-carboxy-5-methyl-s-triazolo[1,5-a]pyrimidin-7-yl)thiomethyl]-8-oxo-5-thia-1-azabicyclo[4.2.0]oct-2-ene-2-carboxylic acid], the MIC – broadly, the lowest concentration found to suppress growth – is less than 0.05 µg/mL in [2]; 0.2 µg/mL (≈ 0.338 µM) in series [3]; 0.2 µg/mL (≈ 0.338 µM) with Escherichia coli 67; 0.39 µg/mL (≈ 0.659 µM) in the series with Proteus morganii IF03848; 0.78 µg/mL (≈ 1.32 µM) in [4]; more than 100 µg/mL in [5]. Also, the LD50 (in general, the dose expected to kill half of the subjects tested) in [6] is more than 1000 mg/kg. In addition, the median effective dose (ED50) (commonly the dose at which the effect has come halfway, by size or by number of responders) in [7] came to 7.68 mg/kg; in series [1], 3.55 mg/kg.
On to `Cc1cc(SCC2=C(C(=O)O)N3C(=O)[C@@H](NC(=O)/C(=N\OC(=O)c4ccco4)c4csc(N)n4)[C@H]3SC2)n2nc(C(=O)O)nc2n1` [Compound 9, (6R,7R)-7-[2-(2-amino-4-thiazolyl)-2-[Z-(2-furancarbonyl)oxyimino]acetamido]-3-[(2-carboxy-5-methyl-s-triazolo[1,5-a]pyrimidin-7-yl)thiomethyl]-8-oxo-5-thia-1-azabicyclo[4.2.0]oct-2-ene-2-carboxylic acid], for which the MIC in series [2] was less than 0.05 µg/mL; in series [3] it was less than 0.05 µg/mL; against Escherichia coli 67 it was less than 0.05 µg/mL; in the series with Proteus morganii IF03848, 0.2 µg/mL (≈ 0.292 µM); in series [4], 0.39 µg/mL (≈ 0.569 µM); in [5], 100 µg/mL (≈ 146 µM). Further, the LD50 in series [6] is more than 1000 mg/kg. Further, the ED50 in series [7] turned out to be 7.68 mg/kg; in [1], 2.11 mg/kg.
As to `Cc1cc(SCC2=C(C(=O)O)N3C(=O)[C@@H](NC(=O)/C(=N\OC(=O)c4cccs4)c4csc(N)n4)[C@H]3SC2)n2nc(C(=O)O)nc2n1` [Compound 10, (6R,7R)-7-[2-(2-amino-4-thiazolyl)-2-[Z-(2-thiophenecarbonyl)oxyimino]acetamido]-3-[(2-carboxy-5-methyl-s-triazolo[1,5-a]pyrimidin-7-yl)-thiomethyl]-8-oxo-5-thia-1-azabicyclo[4.2.0]-oct-2-ene-2-carboxylic acid], the MIC in series [2] was less than 0.05 µg/mL; in series [3], 0.1 µg/mL (≈ 0.143 µM); against Escherichia coli 67 it was 0.1 µg/mL (≈ 0.143 µM); in the series on Proteus morganii IF03848, 0.39 µg/mL (≈ 0.556 µM); in series [4], 0.39 µg/mL (≈ 0.556 µM); in series [5] it was 50 µg/mL (≈ 71.3 µM). In [6], this molecule showed an LD50 of more than 1000 mg/kg. In series [1], this molecule gave an ED50 of 8.01 mg/kg.
Regarding `CO/N=C(\C(=O)N[C@@H]1C(=O)N2C(C(=O)O)=C(CSc3nc(N)cc4ncnn34)CS[C@H]12)c1csc(N)n1` [Compound 22, (6R,7R)-7-[2-(2-amino-4-thiazolyl)-2-(Z-methoxyimino)acetamido]-3-[(7-amino-s-triazolo[1,5-c]pyrimidin-5-yl)thiomethyl]-8 oxo-5-thia-1-azabicyclo[4.2.0]oct-2-ene-2-carboxylic acid], the MIC in series [2] is less than 0.05 µg/mL; in series [3] it was 0.39 µg/mL (≈ 0.693 µM); against Escherichia coli 67, 0.1 µg/mL (≈ 0.178 µM); with Proteus morganii IF03848, 0.78 µg/mL (≈ 1.39 µM); in series [4], 1.57 µg/mL (≈ 2.79 µM); in [5] it was 50 µg/mL (≈ 88.9 µM).
With `CO/N=C(\C(=O)N[C@@H]1C(=O)N2C(C(=O)O)=C(CSc3nnc4cc(C)nc(O)n34)CS[C@H]12)c1csc(N)n1` [Compound 23, (6R,7R)-7-[2-(2-amino-4-thiazolyl)-2-(Z-methoxyimino)acetamido]-3 [(5-hydroxy-7-methyl-s-triazolo[4,3-c]pyrimidin-3-yl)thiomethyl]-8-oxo-5-thia-1-azabicyclo[4.2.0]oct-2-ene-2-carboxylic acid], the MIC in series [2] is less than 0.05 µg/mL; in series [3], 0.39 µg/mL (≈ 0.675 µM); with Escherichia coli 67 it was 0.1 µg/mL (≈ 0.173 µM); with Proteus morganii IF03848 it was 0.78 µg/mL (≈ 1.35 µM); in series [4], 3.13 µg/mL (≈ 5.42 µM); in [5], 50 µg/mL (≈ 86.6 µM).
For `CO/N=C(\C(=O)N[C@@H]1C(=O)N2C(C(=O)O)=C(CSc3nn4c(=O)cc(C)nc4s3)CS[C@H]12)c1csc(N)n1` [Compound 24, (6R,7R)-7-[2-(2-amino-4-thiazolyl)-2-(Z-methoxyimino)acetamido]-3-[(7-methyl-5oxo-5H-1,3,4-thiadiazolo[3,2-a]pyrimidin-2-yl)thiomethyl]-8-oxo-5-thia-1-azabicyclo[4.2.0]oct-2-ene-2-carboxylic acid], the MIC is less than 0.05 µg/mL in series [2]; 0.2 µg/mL (≈ 0.336 µM) in series [3]; less than 0.05 µg/mL against Escherichia coli 67; 0.39 µg/mL (≈ 0.656 µM) with Proteus morganii IF03848; 0.78 µg/mL (≈ 1.31 µM) in series [4]; 50 µg/mL (≈ 84.1 µM) in [5].
On to `Cc1cc(SCC2=C(C(=O)O)N3C(=O)[C@@H](NC(=O)/C(=N\OC(=O)c4ccccc4)c4csc(N)n4)[C@H]3SC2)n2nc(C(=O)O)nc2n1` [Compound 25, (6R,7R)-7-[2-(2-amino-4-thiazolyl)-2-(Z-benzoyloxyimino)acetamido]-3 [(2-carboxy-5-methyl-s-triazolo[1,5-a]pyrimidin-7-yl)thiomethyl]8-oxo-5-thia-1-azabicyclo[4.2.0]oct-2-ene 2-carboxylic acid], for which the MIC was less than 0.05 µg/mL in [2]; 0.1 µg/mL (≈ 0.144 µM) in series [3]; 0.1 µg/mL (≈ 0.144 µM) against Escherichia coli 67; 0.39 µg/mL (≈ 0.561 µM) against Proteus morganii IF03848; 0.39 µg/mL (≈ 0.561 µM) in [4]; 50 µg/mL (≈ 71.9 µM) in series [5].
Take `Cc1cc(SCC2=C(C(=O)O)N3C(=O)[C@@H](NC(=O)/C(=N\OC(=O)c4ccc[nH]4)c4csc(N)n4)[C@H]3SC2)n2nc(C(=O)O)nc2n1` [Compound 26, (6R,7R)-7-[2-(2-amino-4-thiazolyl)-2-[Z-(2-pyrrolecarbonyl)oxyimino]acetamido]-3-[(2-carboxy-5-methyl-s-triazolo[1,5-a]pyrimidin-7-yl)thiomethyl]-8-oxo-5-thia-1-azabicyclo[4.2.0]oct-2-ene-2-carboxylic acid]: the MIC in series [2] is less than 0.05 µg/mL; in [3], 0.2 µg/mL (≈ 0.292 µM); in the series on Escherichia coli 67, 0.2 µg/mL (≈ 0.292 µM); with Proteus morganii IF03848 it was 0.78 µg/mL (≈ 1.14 µM); in series [4], 1.57 µg/mL (≈ 2.29 µM); in series [5], 25 µg/mL (≈ 36.5 µM).
On to `CC(=O)Oc1ccc(C(=O)O/N=C(\C(=O)N[C@@H]2C(=O)N3C(C(=O)O)=C(CSc4cc(C)nc5nc(C(=O)O)nn45)CS[C@H]23)c2csc(N)n2)cc1OC(C)=O` [Compound 27, (6R,7R)-7-[2-(2-amino-4-thiazolyl)-2-[Z-(3,4-diacetoxybenzoyl)oxyimino]acetamido]-3-[(2-carboxy-5-methyl-s-triazolo[1,5-a]pyrimidin-7-yl)thiomethyl]-8-oxo-5-thia-1-azabicyclo[4.2.0]oct-2-ene-2-carboxylic acid], for which the MIC in [2] was less than 0.05 µg/mL; in [3], less than 0.05 µg/mL; in the series on Escherichia coli 67, less than 0.05 µg/mL; in the series on Proteus morganii IF03848 it was 0.2 µg/mL (≈ 0.246 µM); in [4], 1.57 µg/mL (≈ 1.93 µM); in series [5], 0.39 µg/mL (≈ 0.48 µM).

Source of the values: patent US5064953A, “Intermediates cephalosporin derivatives” (Mochida Pharmaceutical Co., Ltd., priority 1983, dated 1991).
